According to patent US20050009903A1, “CB2-selective cannabinoid analogues” (priority 2003, published 2005):
Like-named read-outs stand apart in the source and are kept apart here.

Experiments:
CB2 receptor = CB2 receptor (Homo sapiens, UniProt P34972); assay: CB2 assay: displacement of [3H]CP-55,940 from cloned human CB2 receptor preparation (transfected HEK 293 cells); type: binding; set-up: expressed in transfected cells; conditions: for Ratio CB17CB2 / Ratio CB1/CB2: ratio of Ki values
CB1 receptor = target: T1, CB1 receptor (Rattus norvegicus, UniProt P20272); assay: CB1 assay: displacement of [3H]CP-55,940 from rat brain membrane preparation; type: binding
T1 construct: from tissue; host or cells: rat whole brain, P2 membranes

[1] = cloned human CB2, read-out: Ki at CB2 receptor
[2] = rat brain membranes, read-out: Ki at CB1 receptor
[3] = Ki CB2, Table 1, mean ± SEM, cloned human CB2, [3H]CP 55,940
[4] = Ki at CB2 receptor, cloned human CB2
[5] = Table 3, mean ± SEM, 3-(alkoxy-1-naphthoyl)indoles, the same values as Ki in nM, read-out: CB1 (receptor affinity)
[6] = Table 1, mean ± SEM, cloned human CB2, [3H]CP 55,940, read-out: Ki CB2
[7] = Table 1, mean ± SEM, rat brain membranes, [3H]CP 55,940, read-out: Ki CB1
[8] = Table 2, mean ± SEM, 3-(alkyl-1-naphthoyl)indoles, read-out: Ki CB2
[9] = Table 2, mean ± SEM, 3-(alkyl-1-naphthoyl)indoles, read-out: Ki CB1

T1 sequence (P20272 whole entry): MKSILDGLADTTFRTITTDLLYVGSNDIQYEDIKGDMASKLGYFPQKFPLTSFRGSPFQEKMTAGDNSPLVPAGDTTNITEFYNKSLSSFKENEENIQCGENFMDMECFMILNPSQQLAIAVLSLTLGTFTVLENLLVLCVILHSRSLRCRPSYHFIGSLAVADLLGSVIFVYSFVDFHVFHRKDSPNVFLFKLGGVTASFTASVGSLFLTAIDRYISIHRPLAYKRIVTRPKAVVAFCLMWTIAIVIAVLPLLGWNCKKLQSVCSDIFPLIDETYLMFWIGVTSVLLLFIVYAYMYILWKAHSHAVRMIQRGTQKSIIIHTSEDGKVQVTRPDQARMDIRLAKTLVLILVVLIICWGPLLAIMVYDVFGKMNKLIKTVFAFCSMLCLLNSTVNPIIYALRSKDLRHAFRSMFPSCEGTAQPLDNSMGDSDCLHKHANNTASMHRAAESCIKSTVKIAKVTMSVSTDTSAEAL
CB2 receptor, sequence (P34972 whole entry): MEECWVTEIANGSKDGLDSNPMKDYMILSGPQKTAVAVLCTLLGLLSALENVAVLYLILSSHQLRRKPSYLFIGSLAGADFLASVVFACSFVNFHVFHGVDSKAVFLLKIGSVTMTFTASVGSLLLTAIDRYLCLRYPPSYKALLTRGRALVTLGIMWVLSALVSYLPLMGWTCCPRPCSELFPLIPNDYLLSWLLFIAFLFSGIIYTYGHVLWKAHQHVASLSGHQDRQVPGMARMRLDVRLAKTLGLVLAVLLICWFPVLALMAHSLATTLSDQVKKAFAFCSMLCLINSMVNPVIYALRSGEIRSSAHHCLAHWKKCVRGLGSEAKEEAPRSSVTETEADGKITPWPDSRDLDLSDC

Structure (SMILES) | Ratio CB17CB2 (CB2 receptor; Table 2) | Ki (CB2 receptor; [1]) [nM] | Ki (CB1 receptor; [2]) [nM] | further results
CCCn1c(C)c(C(=O)c2ccc(C)c3ccccc23)c2ccccc21 [JWH-148, 2-Methyl-1-propyl-3-(4-methyl-1-naphthoyl)indole] | 8.8 | 14 ± 1 | 123 ± 8 | 
CCCn1cc(C(=O)c2ccc(OCC)c3ccccc23)c2ccccc21 [JWH-259, 1-Propyl-3-(4-ethoxy-1-naphthoyl)indole] |  | 74 ± 7 | 220 ± 29 | 
CCCC(C)(C)c1cc(OC)c2c(c1)OC(C)(C)[C@@H]1CC=C(C)C[C@@H]21 [Compound 6c, 3-(1′,1′-Dimethylbutyl)-1-methoxy-Δ^8-THC] |  |  |  | Ki (CB2 receptor; [3]): 325 ± 70 nM; Ki (CB2 receptor; [4]): 1870 ± 867 nM; Ratio CB1/CB2 (CB2 receptor; Table 1): 31; Ki (CB1 receptor): > 10000 nM
CCCCCn1c(C)c(C(=O)c2cccc3cc(OC)ccc23)c2ccccc21 [JWH-153, 2-Methyl-1-pentyl-3-(6-methoxy-1-naphthoyl)indole] |  | 11 ± 1 |  | Ki (CB1 receptor): 240 ± 24 nM; Ki (CB1 receptor; [5]): 250 ± 24 nM
CCCCCn1cc(C(=O)c2ccc(OCC)c3ccccc23)c2ccccc21 [JWH-258, 1-Pentyl-3-(4-ethoxy-1-naphthoyl)indole] |  | 10.5 ± 1.3 | 4.6 ± 0.6 | 
COc1cc(C(C)(C)C)cc2c1[C@@H]1CC(CO)=CC[C@H]1C(C)(C)O2 [Compound 11a, 1-Methoxy-3-(1′,1′-dimethylethyl)-11-hydroxy-Δ^8-THC] |  |  |  | Ki (CB2 receptor; [4]): 333 ± 104 nM; Ratio CB1/CB2 (CB2 receptor; Table 1): 5.6; Ki (CB1 receptor): 1860 ± 148 nM
CCC(C)(C)c1cc(OC)c2c(c1)OC(C)(C)C1CC=C(CO)CC21 (centres unmarked) [Compound 11b, 1-Methoxy-3-(1′,1′-dimethylpropyl)-11-hydroxy-Δ^8-THC] |  |  |  | Ki (CB2 receptor; [6]): 85 ± 21 nM; Ratio CB1/CB2 (CB2 receptor; Table 1): 12; Ki (CB1 receptor; [7]): 1010 ± 117 nM
CCCC(C)(C)c1ccc2c(c1)OC(C)(C)[C@@H]1CC=C(CO)C[C@@H]21 [Compound 9c, 1-Deoxy-3-(1′,1′-dimethylbutyl)-11-hydroxy-Δ^8-THC] |  |  |  | Ki (CB2 receptor; [3]): 3.4 ± 0.5 nM; Ratio CB1/CB2 (CB2 receptor; Table 1): 25; Ki (CB1 receptor): 84 ± 16 nM
CCCCCn1c(C)c(C(=O)c2ccc(CC)c3ccccc23)c2ccccc21 [JWH-213, 2-Methyl-1-pentyl-3-(4-ethyl-1-naphthoyl)indole] | 3.6 |  |  | Ki (CB2 receptor; [8]): 0.42 ± 0.05 nM; Ki (CB1 receptor; [9]): 1.5 ± 0.2 nM
CC(C)(C)c1ccc2c(c1)OC(C)(C)C1CC=C(CO)CC21 (centres unmarked) [Compound 9a, 1-Deoxy-3-(1′,1′-dimethylethyl)-11-hydroxy-Δ^8-THC] |  | 18.1 ± 1.8 | 270 ± 58 | 
CCCn1c(C)c(C(=O)c2ccc(OCC)c3ccccc23)c2ccccc21 [JWH-261, 2-Methyl-1-propyl-3-(4-ethoxy-1-naphthoyl)indole] |  | 221 ± 14 | 767 ± 105 | 
CCCn1cc(C(=O)c2cccc3cc(OC)ccc23)c2ccccc21 [JWH-163, 1-Propyl-3-(6-methoxy-1-naphthoyl)indole] |  | 138 ± 12 |  | Ki (CB1 receptor; [5]): 2360 ± 215 nM
CCCn1c(C)c(C(=O)c2cccc3ccc(C)cc23)c2ccccc21 [JWH-046, 2-methyl-1-propyl-3-(7-methyl-1-naphthoyl)indole] | 21 |  |  | 
CCCCCn1cc(C(=O)c2cccc3ccccc23)c2ccccc21 [JWH-018] | 3.3 |  |  | 
CCCCC(C)(C)c1ccc2c(c1)OC(C)(C)C1CC=C(CO)CC21 (centres unmarked) [Compound 9d, 1-Deoxy-3-(1′,1′-dimethylpentyl)-11-hydroxy-Δ^8-THC] |  |  |  | Ki (CB2 receptor; [6]): 1.6 ± 0.03 nM; Ratio CB1/CB2 (CB2 receptor; Table 1): 5.5; Ki (CB1 receptor; [7]): 8.8 ± 1.4 nM
CCCCCC(C)(C)c1ccc2c(c1)OC(C)(C)C1CC=C(CO)CC21 (centres unmarked) [Compound 9e, 1-Deoxy-3-(1′,1′-dimethylhexyl)-11-hydroxy-Δ^8-THC] |  | 0.52 | 1.8 ± 0.3 | Ratio CB1/CB2 (CB2 receptor; Table 1): 3.5
CCCCCn1cc(C(=O)c2ccc(CC)c3ccccc23)c2ccccc21 [JWH-210, 1-Pentyl-3-(4-ethyl-1-naphthoyl)indole] | 0.67 |  | 0.46 ± 0.03 | Ki (CB2 receptor; [8]): 0.69 ± 0.01 nM
CCCn1cc(C(=O)c2cccc3ccccc23)c2ccccc21 [JWH-072] | 6.2 |  |  | 
CCCn1cc(C(=O)c2cccc3ccc(OC)cc23)c2ccccc21 [JWH-165, 1-Propyl-3-(7-methoxy-1-naphthoyl)indole] |  | 71 ± 8 | 204 ± 26 | 
CCCCCn1c(C)c(C(=O)c2cccc3ccc(CC)cc23)c2ccccc21 [JWH-262, 2-Methyl-1-pentyl-3-(7-ethyl-1-naphthoyl)indole] | 5.0 |  |  | Ki (CB2 receptor; [8]): 5.6 ± 0.7 nM; Ki (CB1 receptor; [9]): 28 ± 3 nM
CCCn1c(C)c(C(=O)c2ccc(CC)c3ccccc23)c2ccccc21 [JWH-211, 2-Methyl-1-propyl-3-(4-ethyl-1-naphthoyl)indole] | 5.8 | 12 ± 0.8 | 70 ± 0.8 | 
CCCCCn1c(C)c(C(=O)c2cccc3ccc(C)cc23)c2ccccc21 [JWH-048, 2-Methyl-1-pentyl-3-(7-methyl-1-naphthoyl) indole] | 22 |  |  | 
